# Patent US11590129B2, “Combination therapy with an antitumor alkaloid” (PHARMA MAR, S.A., priority 2010, dated 2023)
# Read-outs that look alike come from different tables or passages of the source.
# Experiments:
# [1] = test system: HGC-27 human gastric carcinoma cell line; assay: cells; details: Homo sapiens, HGC-27, 72 h
# [2] = test system: PANC-1 human pancreatic carcinoma cell line; assay: cells; details: Homo sapiens, PANC-1, 72 h
# Method: (§1) a. […] Briefly, cells were harvested and seeded in 96 well microtiter plates at a density of 5,000 cells in 150 μL of culture medium and incubated for 24 hours in drug-free medium before treatment with vehicle alone or test compounds for 72 h.
# (§2) The cytotoxic effect was measured by the MTT reduction assay, in which 3-(4,5-Dimethylthiazol-2-yl)-2,5-diphenyltetrazolium bromide, a tetrazole, which is reduced to purple formazan in the mitochondria of living cells, was used. MTT (50 μL of 1 mg/mL stock solution) was added to the wells and incubated for 8 hours at 37° C. until formazan crystals were formed. After gently removing the culture medium, DMSO was added to dissolve the insoluble purple formazan product into a colored solution. […] Results were expressed as percentage of control cell growth.
# (§3) b. In a second set of assays, A549 human tumor cells were incubated with PM01183 in combination with each of the agents mentioned above.
# (§4) As a visual aid, response values were plotted on a scatter plot with dose ratios given on the x-axis and % response values on the y-axis. […] In cases where response values at the two endpoints were approximately equivalent, points lying above or below this predicted line of additivity could be interpreted as representing antagonistic or synergistic drug interaction, respectively.
# (§5) Additional serial dilutions were prepared in serum-free culture medium to achieve a final 4× concentration. Aliquots of 50 μL of each diluted compound were added per well.
# PANC-1 was the human pancreatic carcinoma cell line selected for this assay.
# [3] = test system: A549 human lung carcinoma cell line; assay: MTT cytotoxicity assay in A549 cells: IC50 of single agents and combinations with PM01183; assay type: cell-based; details: Homo sapiens
# Procedure, shortened: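 A549 cells seeded at 5,000 per well, grown 24 h drug-free, then exposed to vehicle or compounds for 72 h, either singly or combined with PM01183. Combination responses plotted against dose ratio relative to an additivity line.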
# [4] = test system: HepG2 human hepatocellular liver carcinoma cell line; assay: MTT cytotoxicity assay in HepG2 cells: IC50 of single agents and combinations with PM01183; assay type: cell-based; details: Homo sapiens
# [5] = test system: RXF-393 human kidney carcinoma cell line; assay: cells; details: Homo sapiens, RXF 393, 72 h
# [6] = test system: MDA-MB-231 human breast adenocarcinoma cell line; assay: cells; details: Homo sapiens, MDA-MB-231, 72 h
# [7] = test system: U87-MG human glioblastoma cell line; assay: cells; details: Homo sapiens, U-87 MG, 72 h
# [8] = test system: IGROV-1 human ovarian adenocarcinoma cell line; assay: cells; details: Homo sapiens, IGROV-1, 72 h
# [9] = test system: HT-29 human colon adenocarcinoma cell line; assay: cells; details: Homo sapiens, HT-29, 72 h
# Procedure, shortened: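 HT-29 cells (5,000/well) were attached for 24 h, then exposed to vehicle or compounds for 72 h. Viability was read by MTT reduction, with 8 h MTT at 37° C and formazan dissolved in DMSO. Values are % of control cell growth.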
# [10] = test system: A673 human rhabdomyosarcoma cell line; assay: cells; details: Homo sapiens, A673, 72 h
# Method: as §1, §2, §3, §4, §5
# A673 was the human rhabdomyosarcoma cell line selected for this assay.
# [11] = test system: PC-3 human prostate cancer cell line; assay: cells; details: Homo sapiens, PC-3, 72 h
# Procedure, shortened: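 Cells seeded at 5,000/well, grown 24 h drug-free, then exposed to vehicle or test compounds for 72 h. Viability by MTT reduction (8 h, 37 °C), formazan dissolved in DMSO. Values given as percentage of control cell growth.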
# [12] = test system: SK-MEL-2 human melanoma cell line; assay: cells; details: Homo sapiens, SK-MEL-2, 72 h
# Method: as §1, §2, §3, §4, §5
# SK-MEL-2 was the human melanoma cell line selected for this assay.
# [13] = test system: U-937 human lymphoma cell line; assay: cells; details: Homo sapiens, U-937, 72 h
# Method: (§6) Briefly, cells were seeded in 96 well microtiter plates at a density of 50000 cells per well in 150 μL of culture medium and incubated for 4-6 hours in drug-free medium before treatment with vehicle alone or test compounds for 72 hours.
# (§7) After incubation, the cytotoxic effect was evaluated using a MTT reduction assay. 50 μL of MTT solution (1 mg/mL) were added to the wells and incubated for 15-17 hours at 37° C. until formazan crystals were formed. After gently removing the culture medium, DMSO was added to dissolve the insoluble purple formazan product into a colored solution. […] Results were expressed as percentage of control cell growth. The EC50 values (half-maximal effective concentration) used for the combination studies were calculated using Prism v5.02 software (GraphPad). EC50 was expressed as molar concentration and represented the mean of at least three independent assays.
# (§8) Using these starting concentrations, constant serial dilutions were performed to generate the concentration-response curves for each set of drugs, alone and in combination.
# (§9) Based on this equation, the term “combination index” (CI) is used as a quantitative measure of the degree of drug interactions. […] CI values were calculated by solving the equation for different values of fa (i.e., for different degrees of cell groth inhibition).
# (§10) Data were analyzed using CalcuSyn software (Biosoft, Cambridge, UK). For statistical analysis and graphs Prism software (GraphPad, San Diego, USA) was used. All the results represent the mean of at least three independent experiments.
# as §5
# (§11) In the second set of assays, concentration-response curves for the agents tested, both alone and in two-drug combination, were performed.
# [14] = test system: RAMOS human lymphoma cell line; assay: cells; details: Homo sapiens, Ramos, 72 h
# Method: as §6, §7, §8, §9, §10, §5, §11
# [15] = test system: SW1990 tumors; assay: Human pancreatic tumor xenografts (SW1990) in athymic nude mice, tumor volume % T/C; assay type: in vivo
# Method: Female athymic nude mice (Harlan Laboratories Models, S.L. (Barcelona, Spain) were utilized for all experiments. Animals were housed in individually ventilated cages, up to ten per cage in a 12-hour light-dark cycle at 21-23° C. and 40-60% humidity. The mice were allowed free access to irradiated standard rodent diet and sterilized water. Animals were acclimated for at least 5 days prior to tumor implantation with a tumor cell suspension.
# Each animal was subcutaneously implanted on the right flank, using 26G needle and a 1 cc syringe, with 5×10^6 SW1990 cells, from in vitro passage 12, in 0.05 mL suspension of 50% Matrigel and 50% serum free medium, without antibiotics.
# PM01183 was provided in the form of vials of lyophilized PM01183 cake which was reconstituted with water for infusion to a concentration of 0.2 mg/mL. The PM01183 stock solution was further diluted in 5% glucose solution for injection to the dosing formulation concentrations.
# Dose level groups were administered either as single agents or in combination.
# Comparison of the median tumor volume in the treatment groups (T) to the median tumor volume in the control group (T/C×100%) was used for evaluation of the antitumor efficacy.
# [16] = A549, 72 hours drug exposure, MTT, read-out: IC50
# [17] = gemcitabine 45.0 mg/kg iv days 0,7,14
# [18] = gemcitabine 90.0 mg/kg iv days 0,7,14
# [19] = gemcitabine 135.0 mg/kg iv days 0,7,14
# [20] = gemcitabine 180.0 mg/kg iv days 0,7,14
smiles,measurement,setting,value
"CC[C@@]1(O)C(=O)OCc2c1cc1n(c2=O)Cc2cc3c(CN(C)C)c(O)ccc3nc2-1 [Topotecan, topotecan]",IC50,[1],0.808 µM
same,IC50,[2],4.37 µM
same,IC50,"[3]; A549, 72 h",0.8 µM
same,IC50,"[4]; HepG2, 72 h",1 µM
same,IC50,[5],0.393 µM
same,IC50,[6],0.166 µM
same,IC50,[7],0.75 µM
same,IC50,[8],0.3 µM
same,IC50,[9],0.328 µM
same,IC50,[10],0.024 µM
same,IC50,[11],0.633 µM
same,IC50,[12],0.437 µM
"CO[C@H]1C[C@@H]2CC[C@@H](C)[C@@](O)(O2)C(=O)C(=O)N2CCCC[C@H]2C(=O)O[C@H]([C@H](C)C[C@@H]2CC[C@@H](OC(=O)C(C)(CO)CO)[C@H](OC)C2)CC(=O)[C@H](C)/C=C(\C)[C@@H](O)[C@@H](OC)C(=O)[C@H](C)C[C@H](C)/C=C/C=C/C=C/1C [Temsirolimus, temsirolimus]",IC50,[1],0.15 µM
same,IC50,[2],10 µM
same,IC50,[3]; [16],3.29 µM
same,IC50,[6],12 µM
same,IC50,[7],3.5 µM
same,IC50,[8],0.127 µM
same,IC50,[9],3.5 µM
same,IC50,[10],1 µM
same,IC50,[11],0.5 µM
same,IC50,[12],50 µM
"Nc1ccn([C@@H]2O[C@H](CO)[C@@H](O)C2(F)F)c(=O)n1 [Gemcitabine, gemcitabine]",IC50,[1],0.000534 µM
same,IC50,[2],1 µM
same,IC50,[3]; [16],0.00028 µM
same,IC50,"[4]; HepG2, 72 hours drug exposure, MTT, read-out: IC50",0.00534 µM
same,EC50,[13],0.0327 µM
same,EC50,[14],0.0251 µM
same,IC50,[5],0.5 µM
same,IC50,[6],0.0085 µM
same,% T/C on day 0,[15]; [17],102.3%
same,% T/C on day 3,[15]; [17],85.5%
same,% T/C on day 6,[15]; [17],70.3%
same,% T/C on day 8,[15]; [17],70.5%
same,% T/C on day 10,[15]; [17],63.3%
same,% T/C on day 13,[15]; [17],64.8%
same,% T/C on day 15,[15]; [17],63.1%
same,% T/C on day 17,[15]; [17],58.5%
same,% T/C on day 20,[15]; [17],58.7%
same,% T/C on day 22,[15]; [17],57.3%
same,% T/C on day 24,[15]; [17],65.2%
same,% T/C on day 28,[15]; [17],59.3%
same,% T/C on day 0,[15]; [18],103.8%
same,% T/C on day 3,[15]; [18],70.0%
same,% T/C on day 6,[15]; [18],73.8%
same,% T/C on day 8,[15]; [18],63.3%
same,% T/C on day 10,[15]; [18],55.6%
same,% T/C on day 13,[15]; [18],54.8%
same,% T/C on day 15,[15]; [18],49.9%
same,% T/C on day 20,[15]; [18],47.6%
same,% T/C on day 22,[15]; [18],47.0%
same,% T/C on day 24,[15]; [18],45.9%
same,% T/C on day 28,[15]; [18],49.2%
same,% T/C on day 0,[15]; [19],102.3%
same,% T/C on day 3,[15]; [19],78.3%
same,% T/C on day 6,[15]; [19],71.9%
same,% T/C on day 8,[15]; [19],63.7%
same,% T/C on day 10,[15]; [19],55.4%
same,% T/C on day 13,[15]; [19],52.7%
same,% T/C on day 15,[15]; [19],54.8%
same,% T/C on day 17,[15]; [19],51.2%
same,% T/C on day 20,[15]; [19],49.5%
same,% T/C on day 22,[15]; [19],48.7%
same,% T/C on day 24,[15]; [19],49.8%
same,% T/C on day 28,[15]; [19],49.5%
same,% T/C on day 0,[15]; [20],102.2%
same,% T/C on day 3,[15]; [20],84.1%
same,% T/C on day 6,[15]; [20],73.9%
same,% T/C on day 8,[15]; [20],66.1%
same,% T/C on day 10,[15]; [20],60.9%
same,% T/C on day 13,[15]; [20],59.4%
same,% T/C on day 15,[15]; [20],58.5%
same,% T/C on day 17,[15]; [20],52.1%
same,% T/C on day 20,[15]; [20],49.1%
same,% T/C on day 22,[15]; [20],48.6%
same,% T/C on day 24,[15]; [20],46.9%
same,% T/C on day 28,[15]; [20],39.3%
same,IC50,[7],0.45 µM
same,IC50,[8],0.00634 µM
same,IC50,[9],0.4 µM
same,IC50,[10],0.000434 µM
same,IC50,[11],0.4 µM
"Nc1ccn([C@@H]2O[C@H](CO)[C@@H](O)[C@@H]2O)c(=O)n1 [Cytarabine, cytarabine]",IC50,[1],50 µM
same,IC50,[2],90 µM
same,IC50,"[4]; HepG2, 72 h",20.6 µM
same,EC50,[14],0.0364 µM
same,IC50,[5],50 µM
same,IC50,[6],9.57 µM
same,IC50,[8],11.7 µM
same,IC50,[9],7.8 µM
same,IC50,[10],0.197 µM
same,IC50,[11],40 µM
same,IC50,[12],3.89 µM
"COc1cc([C@@H]2c3cc4c(cc3[C@@H](O[C@@H]3O[C@@H]5CO[C@@H](C)O[C@H]5[C@H](O)[C@H]3O)[C@H]3COC(=O)[C@H]23)OCO4)cc(OC)c1O [Etoposide, etoposide]",IC50,[1],2.9 µM
same,IC50,[2],10 µM
same,IC50,"[3]; A549, 72 h",0.782 µM
same,IC50,"[4]; HepG2, 72 h",10.4 µM
same,IC50,[5],20 µM
same,IC50,[6],4.8 µM
same,IC50,[7],18.5 µM
same,IC50,[8],3.06 µM
same,IC50,[9],5.44 µM
same,IC50,[10],1.55 µM
same,IC50,[11],48 µM
same,IC50,[12],2.89 µM
